The values that follow are results of earlier work, collected in patent publication US20250195565A1 (Fempharma Europe, LLC, priority 2018, published 2025).

The data set deals with human vaginal smooth muscle cells. The settings on record: zinc at a tissue level of 20 μM.

With `[Zn]` [zinc], the “effect on production of extracellular components (collagen, elastin) by the muscle cells” value is listed as “beneficial effect”.
